In test [1] the test system is up-regulation of ICAM-1 (CD54) by IFNγ in U937 human monocytic cells. As to the kind of experiment: U937 IFNγ ICAM1 FACS Assay. The test is classed as cell-based. To be noted: U937 cells stimulated with IFNγ; ICAM-1 expression by FACS; read-out: IC50, Example 44. A digest of the protocol: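 U937 cells in 10% FCS RPMI were preincubated 30 min at 37 °C with an 8-point, 3-fold compound dilution series in duplicate, then stimulated with IFNγ for 18–24 h. Surface ICAM-1 was stained with APC anti-ICAM-1 and read by flow cytometry as geometric mean on live-gated cells. EC50 was derived.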

Test [2] relates to IL-4 stimulated expression of CD23 in human Ramos B cells (JAK-1 and JAK-3). As to the kind of experiment: Assay for Ramos B-Cell Line Stimulated with IL-4 (CD23 upregulation, FACS). In kind it is cell-based. The settings on record: Ramos B-cell line stimulated with IL-4; CD23 expression by FACS; read-out: IC50, Example 41. A digest of the protocol:
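Steps: Ramos B cells are suspended in RPMI with 5% serum, exposed to compound for 1 h at 37 °C, stimulated with IL-4 (final 50 units/mL) for 20-24 h, stained for CD23 and analysed by flow cytometry. IC50 is calculated.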

Molecules are shown by their SMILES.

On to `Cc1noc(COc2ccc(Nc3nc(Nc4cc(C)c(Cl)c(S(N)(=O)=O)c4)ncc3F)cc2)n1` [Compound I-265, N2-(3-Aminosulfonyl-4-chloro-5-methylphenyl)-5-fluoro-N4-[4-(3-methyl-1,2,4-oxadiazol-5-yl)methyleneoxyphenyl]-2,4-pyrimidinediamine], for which the IC50 in test [1] came to 415 nM; in test [2], 42.3 nM.
The like results for `Cc1noc(COc2ccc(Nc3nc(Nc4ccc(F)c(S(N)(=O)=O)c4)ncc3F)cc2)n1` [Compound I-266, N2-(3-Aminosulfonyl-4-fluorophenyl)-5-fluoro-N4-[4-(3-methyl-1,2,4-oxadiazol-5-yl)methyleneoxyphenyl]-2,4-pyrimidinediamine] were, in that order, 824 nM and 85.1 nM.
For the molecule `Cc1noc(CCc2ccc(Nc3nc(Nc4ccc(F)c(S(N)(=O)=O)c4)ncc3F)cc2)n1` [Compound I-267, N2-(3-Aminosulfonyl-4-fluorophenyl)-5-fluoro-N4-[4-(3-methyl-1,2,4-oxadiazol-5-yl)ethylenephenyl]-2,4-pyrimidinediamine], the values for the 50% inhibitory concentration (IC50) in test [1] and in test [2] were 5070 nM and 328 nM, respectively.
In the case of `Cc1noc(COc2ccc(Nc3nc(Nc4ccc(S(N)(=O)=O)cc4)ncc3F)cc2)n1` [Compound I-268, N2-(4-Aminosulfonylphenyl)-5-fluoro-N4-(4-[3-methyl-1,2,4-oxadiazol-5-yl]methyleneoxyphenyl)-2,4-pyrimidinediamine], the IC50 in test [1] was found to be 219 nM; in test [2], 60.7 nM.
For `Cc1nc(COc2ccc(Nc3nc(Nc4ccc(S(N)(=O)=O)cc4)ncc3F)cc2)no1` [Compound I-275, N2-(4-Aminosulfonyl)phenyl-5-fluoro-N4-[4-(5-methyl-1,2,4-oxadiazol-3-yl)methoxy]phenyl-2,4-pyrimidinediamine] the same measures were 1900 nM and 223 nM.
Turning to `Cc1nc(COc2ccc(Nc3nc(Nc4cccc(S(N)(=O)=O)c4)ncc3F)cc2)no1` [Compound I-276, N2-(3-Aminosulfonyl)phenyl-5-fluoro-N4-[4-(5-methyl-1,2,4-oxadiazol-3-yl)methoxy]phenyl-2,4-pyrimidinediamine], the results for the IC50 in test [1] and in test [2] were 822 nM and 135 nM, respectively.
As to `Cc1nnc(COc2ccc(Nc3nc(Nc4cccc(S(N)(=O)=O)c4)ncc3F)cc2)o1` [Compound I-277, N2-(3-aminosulfonylphenyl)-5-fluoro-N4-[4-(5-methyl-1,3,4-oxadiazol-2-yl)methyleneoxyphenyl]-2,4-pyrimidinediamine], the IC50 was 1470 nM in test [1] and 151 nM in test [2].
Consider `Cc1nnc(COc2ccc(Nc3nc(Nc4ccc(F)c(S(N)(=O)=O)c4)ncc3F)cc2)o1` [Compound I-278, N2-(3-Aminosulfonyl-4-fluorophenyl)-5-fluoro-N4-[4-(5-methyl-1,3,4-oxadiazol-2-yl)methyleneoxyphenyl]-2,4-pyrimidinediamine], for which the IC50 stood at 2270 nM in test [1] and 193 nM in test [2].
The like results for `Cc1nc(COc2ccc(Nc3nc(Nc4ccc(C)c(S(N)(=O)=O)c4)ncc3F)cc2)cs1` [Compound I-280, N2-(3-Aminosulfonyl-4-methylphenyl)-5-fluoro-N4-[4-(2-methylthiazol-4-yl)methyleneoxyphenyl]-2,4-pyrimidinediamine] were, in that order, 1460 nM and 145 nM.
The like results for `Cc1nc(COc2ccc(Nc3nc(Nc4cccc(S(N)(=O)=O)c4)ncc3F)cc2)cs1` [Compound I-281, N2-(3-Aminosulfonylphenyl)-5-fluoro-N4-[4-(2-methylthiazol-4-yl)methyleneoxyphenyl]-2,4-pyrimidinediamine] were, in that order, 975 nM and 93.2 nM.
The like results for `CNS(=O)(=O)c1cc(Nc2ncc(F)c(Nc3ccc(OCc4csc(C)n4)cc3)n2)ccc1C` [Compound I-282, 5-Fluoro-N2-[3-(N-methylaminosulfony)-4-methylphenyl]-N4-[4-(2-methylthiazol-4-yl)methyleneoxyphenyl]-2,4-pyrimidinediamine] were, in that order, 3100 nM and 339 nM.
For `CCN(CC)CCNS(=O)(=O)c1cccc(Nc2ncc(F)c(Nc3ccc(OCc4csc(C)n4)cc3)n2)c1` [Compound I-283, N2-[3-(2-N,N-Diethylaminoethyl)aminosulfonylphenyl)-5-fluoro-N4-[4-(2-methylthizol-4-yl)methyleneoxyphenyl]-2,4-pyrimidinediamine], the IC50 in test [1] was 2940 nM; in test [2], 518 nM.
The like results for `CCN(CC)CCNS(=O)(=O)c1ccc(Nc2ncc(F)c(Nc3ccc(OCc4csc(C)n4)cc3)n2)cc1` [Compound I-284, N2-[4-(2-N,N-Diethylaminoethyl)aminosulfonylphenyl)-5-fluoro-N4-[4-(2-methylthizol-4-yl)methyleneoxyphenyl]-2,4-pyrimidinediamine] were, in that order, 1550 nM and 136 nM.
For `Cc1nc(COc2ccc(Nc3nc(Nc4ccc(S(N)(=O)=O)cc4)ncc3F)cc2)cs1` [Compound I-285, N2-(4-Aminosulfonylphenyl)-5-fluoro-N4-[4-(2-methylthiazol-4-yl)methyleneoxyphenyl]-2,4-pyrimidinediamine] the same measures were 1480 nM and 133 nM.
Turning to `CN1CCC(Oc2ccc(Nc3nc(Nc4cccc(S(N)(=O)=O)c4)ncc3F)cc2)C1` (stereo not drawn) [II-9, N2-(3-Aminosulfonylphenyl)-5-fluoro-N4-(N-methylpyrrolidin-3-yloxyphenyl)-2,4-pyrimidinediamine], the IC50 turned out to be 2720 nM in test [1] and 232 nM in test [2].
As for `Cc1ccc(Nc2ncc(F)c(Nc3ccc(OC4CCN(C)C4)cc3)n2)cc1S(N)(=O)=O` (stereo not drawn) [II-10, N2-(3-Aminosulfonyl-4-methylphenyl)-5-fluoro-N4-(N-methylpyrrolidin-3-yloxyphenyl)-2,4-pyrimidinediamine], the IC50 in test [1] worked out at 1400 nM; in test [2] it was 369 nM.
Consider `CNS(=O)(=O)c1cc(Nc2ncc(F)c(Nc3ccc(CC#N)cc3)n2)ccc1C` [III-1, 5-Fluoro-N2-[3-(N-methylaminosulfony)-4-methylphenyl]-5-fluoro-N4-(4-cyanomethylphenyl)-2,4-pyrimidinediamine], for which the concentration for half-maximal inhibition (IC50) in test [1] was 1120 nM; in test [2] it was 151 nM.
For `CCN(CC)CCNS(=O)(=O)c1ccc(Nc2ncc(F)c(Nc3ccc(CC#N)cc3)n2)cc1` [III-2, N2-[4-(2-N,N-Diethylaminoethyl)aminosulfonylphenyl)-5-fluoro-N4-(4-cyanomethylphenyl)-2,4-pyrimidinediamine] the same measures were 6720 nM and 224 nM.
As to `N#CCc1ccc(Nc2nc(Nc3cccc(S(N)(=O)=O)c3)ncc2F)cc1` [III-4, N2-(3-Aminosulfonyl)phenyl-N4-(4-cyanomethyl)phenyl-5-fluoro-2,4-pyrimidinediamine], the IC50 was found to be 1720 nM in test [1] and 18.7 nM in test [2].
For `Cc1ccc(Nc2ncc(F)c(Nc3ccc(CC#N)cc3)n2)cc1S(N)(=O)=O` [III-7, N2-(3-Aminosulfonyl-4-methyl)phenyl-N4-(4-cyanomethyl)phenyl-5-fluoro-2,4-pyrimidinediamine] the same measures were 1090 nM and 85.1 nM.
For `N#CCc1ccc(Nc2nc(Nc3ccc(Cl)c(S(N)(=O)=O)c3)ncc2F)cc1` [III-8, N2-(3-Aminosulfonyl-4-chloro)phenyl-N4-(4-cyanomethyl)phenyl-5-fluoro-2,4-pyrimidinediamine] the same measures were 2250 nM and 138 nM.

The values are drawn from patent publication US11827628B2, “Compositions and methods for inhibition of the JAK pathway” (Rigel Pharmaceuticals, Inc., priority 2005, dated 2023).
